Assay results taken from PubChem BioAssay AID2060512 (Molecular Pharmacology Branch, DTP, NCI, 2025).
Values joined by “and” are separate entries in the source; they are usually repeats but may differ in a detail not shown here. Equal entries are not always repeated.

Test system: 186277-243-T-J2-PDC complex spheroid viability
Experiment: Anticancer human tumor 186277-243-T-J2-PDC patient-derived colon adenocarcinoma cell line growth inhibition [GQUAD]
Details: for viability, T/C: stronger effect = lower value
Text: DNA G-quadruplex Stabilizer Agents in Combinations in Complex Spheroids
A high-throughput screen of multi-cell type tumor spheroids was designed to identify active combinations of DNA G-quadruplex stabilizer agents and targeted small molecules. Complex spheroids include a stromal component modeled by human endothelial cells (HUVEC) and fibroblasts modeled by human mesenchymal stem cells (MSCs). The concentration ranges selected for each drug and investigational agent were based upon clinically achievable concentrations if the clinical Cmax of the agent was known.
Compounds. The drugs and investigational agents: pidnarulex (CX-5461; NSC782164), APTO-253 (NSC789042), BRACO-19 (NSC847499), peposertib (NSC802822), ceralasertib (NSC780249), elimusertib (NSC800525), camonsertib (NSC841442), AZD-1390 (NSC803789), olaparib (NSC753686), talazoparib (NSC767125), ART-558 (NSC835418), sotorasib (NSC818433), MRTX-1133 (NSC836407), SN-38 (NSC673596), topotecan (NSC609699), etoposide (NSC141540), doxorubicin (NSC123127), gemcitabine (NSC613327), 5-fluorouracil (NSC19893), paclitaxel (NSC125973), vemurafenib (NSC761431), panobinostat (NSC761190), R-306465 (JNJ-16241199; NSC773264), adavosertib (NSC754352), TP-3654 (NSC805149), carboplatin (NSC241240), KSQ-4279 (NSC840948), and staurosporine (NSC755774) were obtained from the National Cancer Institute (NCI) Developmental Therapeutics Program Chemical Repository (34). The FDA-approved anticancer drug set is available from the NCI Developmental Therapeutics Program. […] The stock solutions were prepared in dimethyl sulfoxide (DMSO, Sigma-Aldrich, St. Louis, MO, cat. D2650) at 800-fold the tested concentration and stored at -70 degrees C prior to their use. All drugs and investigational agents were tested over a range starting from a high concentration at or near the clinical Cmax and decreasing in half-log increments. If the clinical Cmax for an agent had not been determined, the highest concentration tested was 10 microM.
2.3 Cell Culture. All cells were maintained in an incubator at 37 degrees C and 5% CO2 with 95% humidity. The PDC lines were cultured according to standard operating procedures established by the NCI PDMR. All PDCs were thawed and cultured in Matrigel-coated flasks prepared with a working solution of 1X Ham's F-12 nutrient mix, without supplementation (Invitrogen, cat. 11765054), 100 U/mL penicillin-streptomycin (Invitrogen, cat. 15140122), and 2.5% Matrigel (Corning Inc., cat. 354248) for the first three passages. The 857933-349-R-J2-PDC line was cultured in 6C/Colon 1B media, which includes advanced DMEM/F-12 (Thermo Fisher Scientific, cat. 12634028), 10 mM HEPES (Thermo Fisher Scientific, cat. 15630080), 1X GlutaMAX supplement (Thermo Fisher Scientific, cat. 35050061), 0.1 mg/mL primocin (InvivoGen, cat. ant-pm-2), 10% defined fetal bovine serum, heat inactivated (HyClone Laboratories Inc., cat. SH30070.03HI), 50% L-WRN conditioned media (ATCC, cat. CRL-3276), 1.25 mM N-Acetyl-L-cysteine (Sigma-Aldrich, cat. A9165), 10 mM nicotinamide (Sigma-Aldrich, cat. N0636), 1X B-27 supplement (Thermo Fisher Scientific, cat. 17504044), 1X N-2 supplement (Thermo Fisher Scientific, cat. 17502048), 10 microM Y-27632 dihydrochloride (Tocris Bioscience, cat. 1254), and 50 ng/mL human EGF recombinant protein (Thermo Fisher Scientific, cat. PHG0311). The 485176-168-R4-J1-PDC line was cultured in Panc media, which includes all 6C/Colon 1B media components plus 100 ng/mL human FGF-10 (Thermo Fisher Scientific, cat. 100-26), 500 nM SB-431542 (Selleckchem, cat. S1067), and gastrin (Tocris, cat. 3006).
[…]
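Note: spheroids exposed to drugs for 7 days.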
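Throughout, for viability, T/C: 100% = DMSO vehicle control viability.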

O=C(NO)c1cnc(N2CCN(S(=O)(=O)c3ccc4ccccc4c3)CC2)nc1 + Cc1[nH]c2ccc(F)cc2c1-c1nc2c3cccnc3c3ncccc3c2[nH]1
IC50 (curve of first compound, second compound 0.0316 µM): 0.183 µM | IC50 (curve of first compound, second compound 0.1 µM): 0.187 µM | IC50 (curve of first compound, second compound 0.316 µM): 0.203 µM | IC50 (curve of first compound, second compound 1 µM): 0.19 µM | IC50 (curve of first compound, second compound 3.16 µM): 0.203 µM | IC50 (curve of first compound, second compound 10 µM): 0.218 µM | viability, T/C (second compound 0.0316 µM, first compound 0.0316 µM): 100% | viability, T/C (second compound 0.0316 µM, first compound 0.1 µM): 94% | viability, T/C (second compound 0.0316 µM, first compound 0.316 µM): 9.84% | viability, T/C (second compound 0.0316 µM, first compound 1 µM): 0.27% | viability, T/C (second compound 0.0316 µM, first compound 3.16 µM): 0.17% | viability, T/C (second compound 0.0316 µM, first compound 10 µM): 0.17% | viability, T/C (second compound 0.1 µM, first compound 0.0316 µM): 117% | viability, T/C (second compound 0.1 µM, first compound 0.1 µM): 95% | viability, T/C (second compound 0.1 µM, first compound 0.316 µM): 12.1% | viability, T/C (second compound 0.1 µM, first compound 1 µM): 0.25% | viability, T/C (second compound 0.1 µM, first compound 3.16 µM): 0.14% | viability, T/C (second compound 0.1 µM, first compound 10 µM): 0.12% | viability, T/C (second compound 0.316 µM, first compound 0.0316 µM): 103% | viability, T/C (second compound 0.316 µM, first compound 0.1 µM): 115% | viability, T/C (second compound 0.316 µM, first compound 0.316 µM): 13.1% | viability, T/C (second compound 0.316 µM, first compound 1 µM): 0.3% | viability, T/C (second compound 0.316 µM, first compound 3.16 µM): 0.12% | viability, T/C (second compound 0.316 µM, first compound 10 µM): 0.11% | viability, T/C (second compound 1 µM, first compound 0.0316 µM): 91.5% | viability, T/C (second compound 1 µM, first compound 0.1 µM): 95.1% | viability, T/C (second compound 1 µM, first compound 0.316 µM): 15.3% | viability, T/C (second compound 1 µM, first compound 1 µM): 0.34% | viability, T/C (second compound 1 µM, first compound 3.16 µM): 0.11% | viability, T/C (second compound 1 µM, first compound 10 µM): 0.13% | viability, T/C (second compound 3.16 µM, first compound 0.0316 µM): 100% | viability, T/C (second compound 3.16 µM, first compound 0.1 µM): 98.2% | viability, T/C (second compound 3.16 µM, first compound 0.316 µM): 19.7% | viability, T/C (second compound 3.16 µM, first compound 1 µM): 0.38% | viability, T/C (second compound 3.16 µM, first compound 3.16 µM): 0.14% | viability, T/C (second compound 3.16 µM, first compound 10 µM): 0.16% | viability, T/C (second compound 10 µM, first compound 0.0316 µM): 100% | viability, T/C (second compound 10 µM, first compound 0.1 µM): 98.5% | viability, T/C (second compound 10 µM, first compound 0.316 µM): 26.7% | viability, T/C (second compound 10 µM, first compound 1 µM): 0.52% | viability, T/C (second compound 10 µM, first compound 3.16 µM): 0.2% | viability, T/C (second compound 10 µM, first compound 10 µM): 0.22%

O=C(NO)c1cnc(N2CCN(S(=O)(=O)c3ccc4ccccc4c3)CC2)nc1
viability, T/C (compound 0.0316 µM): 108% and 104% and 95.6% | viability, T/C (compound 0.1 µM): 87.7% and 95.5% and 89.9% | viability, T/C (compound 0.316 µM): 7.49% and 8.52% and 11.5% | viability, T/C (compound 1 µM): 0.33% and 0.31% and 0.48% | viability, T/C (compound 3.16 µM): 0.27% and 0.25% and 0.13% | viability, T/C (compound 10 µM): 0.27% and 0.25% and 0.15% | IC50 (curve of compound): 0.172 µM and 0.183 µM and 0.18 µM

CCc1c2c(nc3ccc(O)cc13)-c1cc3c(c(=O)n1C2)COC(=O)[C@]3(O)CC
viability, T/C (compound 0.000999 µM): 88.2% and 83.6% and 97.2% | viability, T/C (compound 0.00316 µM): 72.1% and 57.3% and 65.1% | viability, T/C (compound 0.00999 µM): 50.2% and 50.4% and 45.2% | viability, T/C (compound 0.0316 µM): 30.8% and 29.4% and 34.3% | viability, T/C (compound 0.0999 µM): 21.3% and 14.5% and 21.4% | viability, T/C (compound 0.316 µM): 18.9% and 11.2% and 16.2% | IC50 (curve of compound): 0.00982 µM and 0.00708 µM and 0.00782 µM
